In PubChem BioAssay (NCI):
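Method: 48-hour compound exposure of cells in 96-well plates, five concentrations, linear interpolation of endpoints. TGI: concentration producing complete growth inhibition.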 Where a SMILES comes first, the peptide text is derived from it. The star is where a group is joined. Fmoc = O=C(OCC1c2ccccc2-c2ccccc21)*; Boc = CC(C)(C)OC(=O)*

Assays:
Test in all cases: NCI-60 cell line screen, 48 h
HL-60(TB) leukemia = test system: HL-60(TB) leukemia
NCI-H226 lung = test system: NCI-H226 lung
T-47D breast = test system: T-47D breast
ACHN renal = test system: ACHN renal
OVCAR-5 ovarian = test system: OVCAR-5 ovarian
NCI-H23 lung = test system: NCI-H23 lung
SF-539 CNS = test system: SF-539 CNS
LOX IMVI melanoma = test system: LOX IMVI melanoma
MOLT-4 leukemia = test system: MOLT-4 leukemia
U251 CNS = test system: U251 CNS

| Structure (SMILES) | TGI (HL-60(TB) leukemia) [µM] | TGI (NCI-H226 lung) [µM] | TGI (T-47D breast) [µM] | TGI (ACHN renal) [µM] | TGI (OVCAR-5 ovarian) [µM] | TGI (NCI-H23 lung) [µM] | TGI (SF-539 CNS) [µM] | TGI (LOX IMVI melanoma) [µM] | TGI (MOLT-4 leukemia) [µM] | TGI (U251 CNS) [µM] |
| --- | --- | --- | --- | --- | --- | --- | --- | --- | --- | --- |
| COC(=O)C1=C(C(=O)OC)SC2(S1)C(C(=O)OC)=C(C(=O)OC)Sc1c2ssc1=Nc1ccc(Cl)cc1 | 6.74 | 3.38 | 3.45 | 2.7 | 2.81 | 4.13 | 1.68 | 1.16 | 5.04 | 2.64 |
| O=c1[nH]c(=O)n(C2OC(CO)C(O)C2O)cc1Oc1ccccc1 (stereo not drawn) | > 100 | > 100 | > 100 | > 100 | > 100 | > 100 | > 100 | > 100 | > 100 | > 100 |
| CC(=O)OC12c3ccccc3-c3ccccc3C1C1C(=O)OC(=O)C12 (stereo not drawn) | > 10 | > 10 | > 10 | > 10 | > 10 | > 10 | > 10 | > 10 | > 10 | > 10 |
| Fc1ccc(-c2sc(-c3cccs3)cc2Cc2cccs2)cc1 | > 100 | > 100 | > 100 | > 100 | > 100 | > 100 | > 100 | > 100 | > 100 | > 100 |
| COc1cc(-c2[o+]c3cc(O)cc(O)c3cc2O)cc(O)c1O | > 100 | > 100 | > 100 | > 100 | > 100 | > 100 | > 100 | > 100 | > 100 | > 100 |
| CC(C)(C)OC(=O)NCCCCC(NC(=O)C(Cc1c[nH]c2ccccc12)NC(=O)OCC1c2ccccc2-c2ccccc21)C(=O)N1CCCC1C(=O)NCC(N)=O (stereo not drawn) (Fmoc-WK(Boc)PG-NH2; configuration not given here) | > 100 | > 100 | > 100 | > 100 | > 100 | > 100 | > 100 | > 100 | > 100 | > 100 |
| c1ccc2c(c1)CCc1[nH]c3c(c1-2)-c1ccccc1CC3 | > 100 | > 100 | > 100 | > 100 | > 100 | > 100 | > 100 | > 100 | > 100 | > 100 |
| COc1ccc(C2C3CCc4ccccc4C3=NN2S(=O)(=O)c2ccc(/C=C/C(=O)O)cc2)cc1 (stereo not drawn) | 9.67 | 74.7 | > 100 | 14.1 | > 100 | 1.87 | 6.29 | 24.5 | 25.3 | 11.6 |
| CCN(CC)Cc1c(/C=C\c2cc(OC)c(OC)c(OC)c2)ccc(OC)c1O | > 60.8 | 27.3 | > 100 | > 100 | > 100 | 14.3 | 9.24 | > 100 | > 100 | 17.2 |
| CC(OC(=O)C(CC(=O)OC(C)(C)C)NC(=O)OC(C)(C)C)C(=O)OCc1ccccc1 (stereo not drawn) | > 100 | > 100 | > 100 | > 100 | > 100 | > 100 | > 100 | > 100 | > 100 | > 100 |
| Cc1ccc2nc(C=Nc3ccc(Cl)cc3)cc(C)c2c1 | 16.7 | 72.7 | 48.1 | > 96.4 | > 100 | 38 | 12.8 | 20.1 | > 53.6 | 32.9 |
| COc1ccc(C(=O)/C=C/c2ccc(OCCSCCCCCCCCCCSCCOc3ccc(/C=C/C(=O)c4ccc(OC)c(OC)c4)cc3)cc2)cc1OC | > 100 |  | > 100 | > 100 |  | > 100 | > 100 | > 100 | > 100 |  |
| COc1cc2c(cc1OCCCCOc1cc3c(cc1OC)C(=O)N1CCC[C@H]1C(=O)N3)N=C[C@@H]1CCCN1C2=O | 37.3 | 26.7 | 28.7 | 27.9 | 33 | 25.4 |  | 4.22 | 4.69 | 14 |
| COC(=O)C1(C(=O)OC)N=C(C)OC1/C=C/c1ccccc1 (stereo not drawn) | > 100 | > 100 | > 100 | > 100 | > 100 | > 100 |  | > 100 | > 100 | > 100 |
| Cc1nnc(N)nc1/C=C/c1c(O)ccc2ccccc12 | 71.4 | 44.5 | > 100 | 43.7 | 78.7 | > 100 |  | > 100 | > 100 | > 100 |
| OCCOc1ccccc2cccc1-2 | > 100 | > 100 | > 100 | > 100 | > 100 | > 100 | > 100 | > 100 |  | > 100 |
